# Entries after “also recorded” stand apart in the source; their conditions may differ.
# What was measured:
# Type in all cases: cell-based
# [1] = system: human peripheral blood mononuclear cells (PBMCs); assay: Immunological screening model: IFN-γ produced in human PBMCs
# From the text: The present inventors have long been researching the active components in traditional Chinese herbal medicine and their applications in immunotherapy. The present inventors have established an immunological test model based on determination of the level of IFN-γ produced in human peripheral blood mononuclear cells (PBMCs). By this model, compounds having promotion (or inhibition) effects on human peripheral blood mononuclear cells (PBMCs) to produce γ-interferon can be screened out from chemical components from various sources including traditional Chinese herbal medicine, medicinal plants and so on. Since the γ-Interferon is an important protein (cytokine) in human body's immune system to resist attacks from diseases, its production level in body directly relates to the body's immunity. Therefore, the model is an ideal tool to screen and find functional pharmaceuticals for improving human immunity.
# In addition, all the results and achievements of the present invention are based on the very effective screening model established by the present inventors. Therefore, a further objective of the present invention is to provide an experimental model for screening substances having impacts (either enhance or inhibit) on immunity. […] Finally, by using ELISA techniques, the levels of IFN-γ produced in the culture were measured at different incubation time. […]
# [2] = system: normal human peripheral blood mononuclear cells (PBMCs); assay: IFN-γ production by PBMCs stimulated with Anti-CD3/Anti-CD28 (ELISA); conditions: PBMCs treated with anti-CD3 and anti-CD28 (1 μg/ml each); icariside I 1, 10, 100 ng/ml; 12-48 h; dose-dependent
# Procedure: (§1) Effect of icariside I on promoting normal human peripheral blood mononuclear cells (PBMCs subjected to mAb treatment) to produce γ-interferon (interferon-gamma, IFN-γ) (an experimental model mimicking enhancing immunity in human body).
# (§2) (1) Preparation of icariside I solution for the test. 10 mg icariside I was dissolved in 1 ml DMSO (with initial concentration of 10 mg/ml). The solution was then transferred into small vials and stored in a freezer at −80° C. for future use.
# (§3) The whole blood samples were drawn from peripheral vein of healthy volunteers. Heparin (blood:heparin=10 ml: 80 μl) was used for anticoagulation. Then, it is diluted with equal volume of Hank's solution. The diluted blood samples were slowly laid on the Ficoll separation solution (Ficoll to diluted blood ratio is 3:4) followed by Ficoll density gradient centrifugation (22° C. 2200 r/min, 20 min). After centrifugation, samples were divided into three layers in the tube. At the interface between the top and middle layers, there was a narrow band which is a mononuclear cell-based yellow-white cloud layer. The peripheral blood mononuclear cells (PBMCs) were drawn and transferred into another centrifuge tube with a pipette. […] The mononuclear cells were counted with trypan blue solution. […]
# (§4) The collected cell culture supernatants with different culture time were detected with ELISA to measure the amount of cytokine IFN-γ produced. […]
# [3] = system: normal human peripheral blood mononuclear cells (PBMCs); assay: IFN-γ production by PBMCs stimulated with Anti-CD3 (ELISA); conditions: PBMCs treated with anti-CD3 (1 μg/ml); icariside I 1, 10, 100 ng/ml; 12-48 h; time and dose dependent
# Procedure: as §1, §2, §3, §4
structure (smiles),measurement,setting,value
COc1ccc(-c2oc3c(CC=C(C)C)c(O[C@@H]4O[C@H](CO)[C@@H](O)[C@H](O)[C@H]4O)cc(O)c3c(=O)c2O)cc1 [icariside I],effect in promoting PBMCs to generate IFN-γ,[1],significant effect
same,IFN-γ level produced by PBMCs,[2],significantly enhanced
same,IFN-γ level produced by PBMCs,[3],significantly enhanced; also recorded: significantly increased

# From patent US11117919B2, “Icariside compound, preparation method thereof, and application thereof” (FOSHAN GOLDEN HEALTH TECHNOLOGY CO., LTD., priority 2015, dated 2021)
